Laboratory results published in patent publication US20240067662A1, “KRAS INHIBITORS” (Bristol-Myers Squibb Company, priority 2022, published 2024).

biological target: GMPPNP-loaded KRAS G12C (Homo sapiens, UniProt P01116, G12C); experiment: KRAS G12C RAF Disruption Assay (HTRF); assay type: biochemical; settings: recombinant GMPPNP-loaded KRAS G12C (5 nM), 20 min with compound; GST-RAF1 RBD (9 nM); HTRF signal; read-out: KRASG12C RAF Disruption Assay (IC50)
Summary of the method: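 The read-out is an HTRF 520/495 emission ratio, with IC50 taken from dose-response curves. Compound was first incubated for 20 min at room temperature with active-state KRAS G12C (GMPPNP, 5 nM) in Tris pH 7.5/NaCl/MgCl2/DTT/BSA. RAF1 RBD-GST (9 nM, 20 min) and SA-Tb (0.25 nM, 3 h) were added in turn.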

Chain of GMPPNP-loaded KRAS G12C (P01116 1-188 isoform P01116-2 G12C): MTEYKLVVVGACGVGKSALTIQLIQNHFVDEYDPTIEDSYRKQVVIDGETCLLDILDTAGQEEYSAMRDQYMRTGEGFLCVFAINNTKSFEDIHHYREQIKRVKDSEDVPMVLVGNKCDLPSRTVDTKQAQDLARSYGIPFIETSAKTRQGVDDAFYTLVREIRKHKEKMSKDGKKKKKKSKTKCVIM

| SMILES | IC50 |
| --- | --- |
| C#Cc1c(F)ccc2cc(O)cc(-c3ncc4c(N5C[C@H]6CC[C@@H](C5)N6C(=O)/C(F)=C/c5cc(C)ccn5)nc(OC[C@@]56CCCN5C[C@H](F)C6)nc4c3F)c12 [Compound 3, (Z)-1-((1R, 5S)-3-(7-(8-ethynyl-7-fluoro-3-hydroxynaphthalen-1-yl)-8-fluoro-2-(((2R, 7aS)-2-fluorotetrahydro-1H-pyrrolizin-7a(5H)-yl)methoxy)pyrido[4,3-d]pyrimidin-4-yl)-3,8-diazabicyclo[3.2.1]octan-8-yl)-2-fluoro-3-(4-methylpyridin-2-yl)prop-2-en-1-one] | 19 nM |
| C#Cc1cccc2cccc(-c3ncc4c(N5C[C@H]6CN(C(=O)/C(F)=C/c7ncccn7)C[C@H]6C5)nc(OC[C@@]56CCCN5C[C@H](F)C6)nc4c3F)c12 [Compound 101, (Z)-1-((3aR, 6aS)-5-(7-(8-ethynylnaphthalen-1-yl)-8-fluoro-2-(((2R, 7aS)-2-fluorotetrahydro-1H-pyrrolizin-7a(5H)-yl)methoxy)pyrido[4,3-d]pyrimidin-4-yl)hexahydropyrrolo[3,4-c]pyrrol-2(1H)-yl)-2-fluoro-3-(pyrimidin-2-yl)prop-2-en-1-one] | 12000 nM |
| N#CC[C@H]1CN(c2nc(OC[C@@]34CCCN3C[C@H](F)C4)nc3c(F)c(-c4cc(F)ccc4F)ncc23)CCN1C(=O)/C(F)=C/c1ccccn1 [Example 40, 2-((S)-4-(7-(2,5-difluorophenyl)-8-fluoro-2-(((2R, 7aS)-2-fluorotetrahydro-1H-pyrrolizin-7a(5H)-yl)methoxy)pyrido[4,3-d]pyrimidin-4-yl)-1-((Z)-2-fluoro-3-(pyridin-2-yl)acryloyl)piperazin-2-yl)acetonitrile] | 880 nM |
| C#Cc1cccc2cccc(-c3ncc4c(N5C[C@H]6CN(C(=O)/C(F)=C/c7ccccn7)C[C@H]6C5)nc(OC[C@@]56CCCN5C[C@H](F)C6)nc4c3F)c12 [Compound 100, (Z)-1-((3aR, 6aS)-5-(7-(8-ethynylnaphthalen-1-yl)-8-fluoro-2-(((2R, 7aS)-2-fluorotetrahydro-1H-pyrrolizin-7a(5H)-yl)methoxy)pyrido[4,3-d]pyrimidin-4-yl)hexahydropyrrolo[3,4-c]pyrrol-2(1H)-yl)-2-fluoro-3-(pyridin-2-yl)prop-2-en-1-one] | 5300 nM |
| C#Cc1c(F)ccc2cc(O)cc(-c3ncc4c(N5CCN(C(=O)/C(F)=C/c6cccnn6)CC5)nc(OC[C@@]56CCCN5C[C@H](F)C6)nc4c3F)c12 [Example 55, (Z)-1-(4-(7-(8-ethynyl-7-fluoro-3-hydroxynaphthalen-1-yl)-8-fluoro-2-(((2R, 7aS)-2-fluorotetrahydro-1H-pyrrolizin-7a(5H)-yl)methoxy)pyrido[4,3-d]pyrimidin-4-yl)piperazin-1-yl)-2-fluoro-3-(pyridazin-3-yl)prop-2-en-1-one] | 2 nM |
| N#CC[C@H]1CN(c2nc(OC[C@@]34CCCN3C[C@H](F)C4)nc3c(F)c(-c4cc(F)ccc4F)ncc23)CCN1C(=O)/C(F)=C/c1nccs1 [Example 41, 2-((S)-4-(7-(2,5-difluorophenyl)-8-fluoro-2-(((2R, 7aS)-2-fluorotetrahydro-1H-pyrrolizin-7a(5H)-yl)methoxy)pyrido[4,3-d]pyrimidin-4-yl)-1-((Z)-2-fluoro-3-(thiazol-2-yl)acryloyl)piperazin-2-yl)acetonitrile] | 760 nM |
| Nc1nc2c(-c3ncc4c(N5CCN(C(=O)/C(F)=C/c6nccs6)CC5)nc(OC[C@@]56CCCN5C[C@H](F)C6)nc4c3F)c(F)cc(F)c2s1 [Example 67, (Z)-1-(4-(7-(2-amino-5,7-difluorobenzo[d]thiazol-4-yl)-8-fluoro-2-(((2R, 7aS)-2-fluorotetrahydro-1H-pyrrolizin-7a(5H)-yl)methoxy)pyrido[4,3-d]pyrimidin-4-yl)piperazin-1-yl)-2-fluoro-3-(thiazol-2-yl)prop-2-en-1-one] | 41 nM |
| C#Cc1cccc2cccc(-c3ncc4c(N5CCN(C(=O)/C(F)=C/c6nccs6)C[C@H]5C)nc(OC[C@@]56CCCN5C[C@H](F)C6)nc4c3F)c12 [Example 76, (Z)-1-((3R)-4-(7-(8-ethynylnaphthalen-1-yl)-8-fluoro-2-(((2R, 7aS)-2-fluorotetrahydro-1H-pyrrolizin-7a(5H)-yl)methoxy)pyrido[4,3-d]pyrimidin-4-yl)-3-methylpiperazin-1-yl)-2-fluoro-3-(thiazol-2-yl)prop-2-en-1-one] | 590 nM |
| C#Cc1cccc2cccc(-c3ncc4c(N5CCC6C5CCN6C(=O)/C(F)=C/c5ccccn5)nc(OC[C@@]56CCCN5C[C@H](F)C6)nc4c3F)c12 (single isomer, unassigned) [Compound 107] | 5600 nM |
| C#Cc1cccc2cccc(-c3ncc4c(N5CCC6(CCN6C(=O)/C(F)=C/c6ncccn6)C5)nc(OC[C@@]56CCCN5C[C@H](F)C6)nc4c3F)c12 (single isomer, unassigned) [Compound 105] | 9700 nM |
| C#Cc1c(F)ccc2cccc(-c3ncc4c(N5CCN(C(=O)/C(F)=C/c6ccccn6)CC5)nc(OC[C@@]56CCCN5C[C@H](F)C6)nc4c3F)c12 [Example 31, (Z)-1-(4-(7-(8-ethynyl-7-fluoronaphthalen-1-yl)-8-fluoro-2-(((2R, 7aS)-2-fluorotetrahydro-1H-pyrrolizin-7a(5H)-yl)methoxy)pyrido[4,3-d]pyrimidin-4-yl)piperazin-1-yl)-2-fluoro-3-(pyridin-2-yl)prop-2-en-1-one] | 64 nM |
| N#Cc1cccc2cccc(-c3ncc4c(N5CCN(C(=O)/C(F)=C/c6ccccn6)CC5)nc(OC[C@@]56CCCN5C[C@H](F)C6)nc4c3F)c12 [Example 49, 8-(8-fluoro-4-(4-((Z)-2-fluoro-3-(pyridin-2-yl)acryloyl)piperazin-1-yl)-2-(((2R, 7aS)-2-fluorotetrahydro-1H-pyrrolizin-7a(5H)-yl)methoxy)pyrido[4,3-d]pyrimidin-7yl)-1-naphthonitrile] | 800 nM |
| C#Cc1cccc2cccc(-c3ncc4c(N(C)[C@@H]5CCN(C(=O)/C(F)=C/c6nccs6)C5)nc(OC[C@@]56CCCN5C[C@H](F)C6)nc4c3F)c12 [Compound 116, (Z)-1-((R)-3-((7-(8-ethynylnaphthalen-1-yl)-8-fluoro-2-(((2R, 7aS)-2-fluorotetrahydro-1H-pyrrolizin-7a(5H)-yl)methoxy)pyrido[4,3-d]pyrimidin-4-yl)(methyl)amino)pyrrolidin-1-yl)-2-fluoro-3-(thiazol-2-yl)prop-2-en-1-one] | 27 nM |
| CN1CCC[C@H]1COc1nc(N2CCN(C(=O)/C(F)=C/c3ccccn3)[C@@H](CC#N)C2)c2cnc(-c3cccc4ccc(F)cc34)c(F)c2n1 [Example 36, 2-((S)-1-((Z)-2-fluoro-3-(pyridin-2-yl)acryloyl)-4-(8-fluoro-7-(7-fluoronaphthalen-1-yl)-2-(((S)-1-methylpyrrolidin-2-yl)methoxy)pyrido[4,3-d]pyrimidin-4-yl)piperazin-2-yl)acetonitrile] | 150 nM |
| C#Cc1c(F)ccc2cc(O)cc(-c3ncc4c(N5CCN(C(=O)/C(F)=C/c6ncco6)CC5)nc(OC[C@@]56CCCN5C[C@H](F)C6)nc4c3F)c12 [Example 54, (Z)-1-(4-(7-(8-ethynyl-7-fluoro-3-hydroxynaphthalen-1-yl)-8-fluoro-2-(((2R, 7aS)-2-fluorotetrahydro-1H-pyrrolizin-7a(5H)-yl)methoxy)pyrido[4,3-d]pyrimidin-4-yl)piperazin-1-yl)-2-fluoro-3-(oxazol-2-yl)prop-2-en-1-one] | 5 nM |
| C#Cc1cccc2cccc(-c3ncc4c(N(C)C5CCN(C(=O)/C(F)=C/c6ccccn6)C5C)nc(OC[C@@]56CCCN5C[C@H](F)C6)nc4c3F)c12 (single isomer, unassigned) [Example 74 trans isomer 1] | 2.5 nM |
| C#Cc1c(F)ccc2cc(O)cc(-c3ncc4c(N5C[C@H]6CC[C@@H](C5)N6C(=O)/C(F)=C/c5ccccn5)nc(OC[C@@]56CCCN5C[C@H](F)C6)nc4c3F)c12 [Compound 2, (Z)-1-((1R, 5S)-3-(7-(8-ethynyl-7-fluoro-3-hydroxynaphthalen-1-yl)-8-fluoro-2-(((2R, 7aS)-2-fluorotetrahydro-1H-pyrrolizin-7a(5H)-yl)methoxy)pyrido[4,3-d]pyrimidin-4-yl)-3,8-diazabicyclo[3.2.1]octan-8-yl)-2-fluoro-3-(pyridin-2-yl)prop-2-en-1-one] | 32 nM |
| N#Cc1c(N)sc2c(F)ccc(-c3ncc4c(N5CCN(C(=O)/C(F)=C/c6ccccn6)CC5)nc(OC[C@@]56CCCN5C[C@H](F)C6)nc4c3F)c12 [Compound 121, 2-amino-7-fluoro-4-(8-fluoro-4-(4-((Z)-2-fluoro-3-(pyridin-2-yl)acryloyl)piperazin-1-yl)-2-(((7aS)-2-fluorotetrahydro-1H-pyrrolizin-7a(5H)-yl)methoxy)pyrido[4,3-d]pyrimidin-7-yl)benzo[b]thiophene-3-carbonitrile] | 8 nM |
| N#CC[C@H]1CN(c2nc(OC[C@@]34CCCN3C[C@H](F)C4)nc3c(F)c(-c4cc(O)ccc4C(F)(F)F)ncc23)CCN1C(=O)/C(F)=C/c1ccccn1 [Compound 94, 2-((S)-4-(8-fluoro-2-(((2R, 7aS)-2-fluorotetrahydro-1H-pyrrolizin-7a(5H)-yl)methoxy)-7-(5-hydroxy-2-(trifluoromethyl)phenyl)pyrido[4,3-d]pyrimidin-4-yl)-1-((Z)-2-fluoro-3-(pyridin-2-yl)acryloyl)piperazin-2-yl)acetonitrile] | 34 nM |
| C#Cc1c(F)ccc2cc(O)cc(-c3ncc4c(N5C[C@H]6CC[C@@H](C5)N6C(=O)/C(F)=C/c5cccc(OC)n5)nc(OC[C@@]56CCCN5C[C@H](F)C6)nc4c3F)c12 [Compound 17, (Z)-1-((1R, 5S)-3-(7-(8-ethynyl-7-fluoro-3-hydroxynaphthalen-1-yl)-8-fluoro-2-(((2R, 7aS)-2-fluorotetrahydro-1H-pyrrolizin-7a(5H)-yl)methoxy)pyrido[4,3-d]pyrimidin-4-yl)-3,8-diazabicyclo[3.2.1]octan-8-yl)-2-fluoro-3-(6-methoxypyridin-2-yl)prop-2-en-1-one] | 2600 nM |
